Square brackets hold non-standard residues; d marks the D form. Peptide text beside a SMILES is read from it. * marks the point of attachment. Tyr(3-Cl) = N[C@@H](Cc1ccc(O)c(Cl)c1)C(=O)O; Benzoyl(3,5-Cl2) = O=C(c1cc(Cl)cc(Cl)c1)*; Lys(Et2) = CCN(CC)CCCC[C@H](N)C(=O)O; Gly(cPent) = N[C@H](C(=O)O)C1CCCC1; NH(propargyl) = C#CCN*
Tests used:
[1] = target: T1, CBX8 bulk chromatin binding (Homo sapiens, UniProt Q9HC52); assay: Sequential salt extraction (SSE) in HEK293T cells; assay type: cell-based; conditions: 10 μM
T1 construct: endogenous in cells; host or cells: HEK293T (A19)
Description: Sequential Salt Extraction. […] In this assay, bulk chromatin is sequentially resuspended in increasing concentrations of sodium chloride, and the proteins eluted with each wash are quantified using immunoblotting.
Next day, media was removed and cells were washed with PBS. […] After the 4-hour pretreatment, media was removed and cells were washed again with PBS. Cells were harvested and washed with PBS. (Note: it is critical to balance the cell numbers the same in the peptide treated group and the DMSO treated control group.) Cells were resuspended in 1 mL Buffer A (25 mM HEPES, 25 mM KCl, 5 mM MgCla, 0.1% NP-40, 10% Glycerol, 0.05 M EDTA, pH 7.8, plus protease inhibitor) was added to the cell pellet from centrifuge and rotated at 4° C. for 10 minutes (Porter et al.). Cells were spun down at 6500×g for 5 min at 4° C. […] (Note: it is critical to maintain the consistence for all washing steps with the subsequent NaCl containing mRIPA buffers) Then the sample was centrifuged for 3 min at 6500×g. The supernatant was saved in a separate tube, labeled as “0 mM fraction”—0 mM sequential salt extraction washing supernatant. […] The procedures for OmM was repeated for each salt concentrations in the subsequent washes. All washing supernatants were saved and labeled. […] ImageJ was employed to quantitate the protein bands.

[2] = target: T2, CBX8 binding to chromatin (Homo sapiens, UniProt Q9HC52); assay: ChIP-qPCR in Hs68 fibroblast cells; assay type: cell-based; conditions: 100 μM, 4 h
T2 construct: endogenous in cells; host or cells: Hs68 fibroblasts (A16); HEK293T (A19); K562 (A23)
T2 sequence (Q9HC52 1-389): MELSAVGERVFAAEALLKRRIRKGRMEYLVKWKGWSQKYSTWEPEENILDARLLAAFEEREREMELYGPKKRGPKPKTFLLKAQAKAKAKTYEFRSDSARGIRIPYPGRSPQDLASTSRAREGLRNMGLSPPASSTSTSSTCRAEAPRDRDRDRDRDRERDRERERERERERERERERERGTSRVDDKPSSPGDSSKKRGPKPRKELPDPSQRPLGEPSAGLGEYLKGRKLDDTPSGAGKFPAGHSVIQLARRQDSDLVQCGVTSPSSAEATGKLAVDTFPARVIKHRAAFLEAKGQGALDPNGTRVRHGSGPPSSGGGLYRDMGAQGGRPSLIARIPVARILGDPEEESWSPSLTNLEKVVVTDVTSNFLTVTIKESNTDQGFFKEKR
Description: ChIP: Hs68 cells were seeded at 4×10^6 in a 10 cm cell culture plates 16 hours prior to treatment. […] ChIP was performed as described in Connelly et al., 2018. Birefly, cells were washed with PBS and fixed on the plate with CiA Fix buffer (50 mM HEPES, pH 8.0, 1 mM EDTA, 0.5 mM ETGA, 100 mM NaCl) and 1% formaldehyde for 10 min at room temperature. Crosslinking was quenched with 0.125 M glycine for 5 min at 4° C. Cells were washed once with PBS and lifted off the plate then resuspended in CiA NP Rinse buffer 1 (50 mM HEPES pH 8.0, 140 mM NaCl, 1 mM EDTA, 10% glycerol, 0.5% NP-40, 0.25% Triton X) for 10 min. Cells were pelleted at 1200×g for 5 min at 4° C. The supernatant was removed, and the cells were resuspended in CiA NP rinse buffer 2 (10 mM Tris pH 8.0, 1 mM EDTA, 0.5 mM EGTA, 200 mM NaCl). Cells were collected by centrifugation, 1200×g for 5 min. Supernatant was removed and the cells were washed twice with shearing buffer (0.1% SDS, 1 mM EDTA, 10 mM Tris HCl, pH 8.0). Cells were resuspended in shearing buffer and sonicated for 7 min with the probe (Branson). Lysate was centrifuged at 21,000×g for 15 min to remove debris. Supernatant was collected and pre-cleared overnight with Protein A/G magnetic beads (Pierce). […]
qPCR: qPCR was performed on the isolated ChIP DNA using SYBR master mix (Thermo) and run on the BioRad CFX thermo cycler. […] Enrichment was determined by percent input. […]

C#CCNC(=O)[C@H](CO)NC(=O)[C@H](CCCCN(CC)CC)NC(=O)[C@@H](NC(=O)[C@@H](NC(=O)[C@H](Cc1ccc(O)c(Cl)c1)NC(=O)c1cc(Cl)cc(Cl)c1)C1CCCC1)[C@@H](C)CC [SW2_152F] ({Benzoyl(3,5-Cl2)}-[Tyr(3-Cl)][Gly(cPent)]I[Lys(Et2)]S-{NH(propargyl)})
CBX8 binding to chromatin, SSE [1]: only a modest change
CBX8 binding at target loci, ChIP-qPCR [2]: significant reduction of CBX8 binding
